Laboratory results taken from patent US11420958B2, “Aryl and heteroaryl substituted indole compounds” (BRISTOL-MYERS SQUIBB COMPANY, priority 2017, dated 2022).

Assays:
Type in all cases: cell-based
[1] = molecular target: human TLR7 (Homo sapiens (Human), UniProt Q9NYK1); test: TLR7 inhibition reporter assay (HEK-Blue, SEAP); settings: HEK-Blue cells overexpressing human TLR7, gardiquimod 7.5 μM stimulation
In short: (§1)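 Reporter cells, NF-κB/AP-1-driven SEAP; cmpd 0.05 nM–50 μM final, 30 min RT pre-treat; stim gardiquimod 7.5 μM (TLR7), R848 15.9 μM (TLR8), ODN2006 5 nM (TLR9); 22 h 37 °C; % inhibition of SEAP signal.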

[2] = molecular target: human TLR8 (Homo sapiens (Human), UniProt Q9NR97); test: TLR8 inhibition reporter assay (HEK-Blue, SEAP); settings: HEK-Blue cells overexpressing human TLR8, R848 15.9 μM stimulation
human TLR8, sequence (Q9NR97 27-1041): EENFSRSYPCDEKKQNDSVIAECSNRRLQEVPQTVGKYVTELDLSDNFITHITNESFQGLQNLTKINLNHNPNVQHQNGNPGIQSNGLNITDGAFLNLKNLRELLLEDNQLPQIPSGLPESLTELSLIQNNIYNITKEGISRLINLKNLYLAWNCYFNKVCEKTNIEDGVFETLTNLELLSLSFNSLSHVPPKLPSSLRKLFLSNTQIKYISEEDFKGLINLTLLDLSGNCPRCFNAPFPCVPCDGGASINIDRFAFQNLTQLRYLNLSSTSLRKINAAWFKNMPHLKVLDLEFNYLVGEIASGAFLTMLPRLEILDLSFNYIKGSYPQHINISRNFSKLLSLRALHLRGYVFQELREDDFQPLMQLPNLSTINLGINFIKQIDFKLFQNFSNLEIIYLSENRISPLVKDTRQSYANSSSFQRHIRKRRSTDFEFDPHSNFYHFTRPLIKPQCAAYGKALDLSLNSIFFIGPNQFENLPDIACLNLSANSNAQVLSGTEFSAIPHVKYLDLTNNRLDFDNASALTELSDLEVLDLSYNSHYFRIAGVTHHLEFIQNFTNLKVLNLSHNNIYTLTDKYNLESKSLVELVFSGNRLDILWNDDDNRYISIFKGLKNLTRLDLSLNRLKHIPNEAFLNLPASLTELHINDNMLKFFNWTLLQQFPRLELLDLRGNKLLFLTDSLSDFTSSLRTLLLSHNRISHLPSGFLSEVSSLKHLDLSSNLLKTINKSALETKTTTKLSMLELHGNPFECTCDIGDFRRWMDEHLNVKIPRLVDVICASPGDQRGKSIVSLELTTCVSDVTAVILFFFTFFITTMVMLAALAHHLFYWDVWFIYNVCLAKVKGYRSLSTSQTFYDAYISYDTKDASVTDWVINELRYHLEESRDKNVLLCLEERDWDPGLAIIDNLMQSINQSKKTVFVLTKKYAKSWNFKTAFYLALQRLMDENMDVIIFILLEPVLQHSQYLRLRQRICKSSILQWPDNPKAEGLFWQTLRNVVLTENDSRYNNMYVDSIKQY
In short: as §1

[3] = molecular target: human TLR9 (Homo sapiens (Human), UniProt Q9NR96); test: TLR9 inhibition reporter assay (HEK-Blue, SEAP); settings: HEK-Blue cells overexpressing human TLR9, ODN2006 5 nM stimulation
human TLR9, sequence (Q9NR96 26-1032): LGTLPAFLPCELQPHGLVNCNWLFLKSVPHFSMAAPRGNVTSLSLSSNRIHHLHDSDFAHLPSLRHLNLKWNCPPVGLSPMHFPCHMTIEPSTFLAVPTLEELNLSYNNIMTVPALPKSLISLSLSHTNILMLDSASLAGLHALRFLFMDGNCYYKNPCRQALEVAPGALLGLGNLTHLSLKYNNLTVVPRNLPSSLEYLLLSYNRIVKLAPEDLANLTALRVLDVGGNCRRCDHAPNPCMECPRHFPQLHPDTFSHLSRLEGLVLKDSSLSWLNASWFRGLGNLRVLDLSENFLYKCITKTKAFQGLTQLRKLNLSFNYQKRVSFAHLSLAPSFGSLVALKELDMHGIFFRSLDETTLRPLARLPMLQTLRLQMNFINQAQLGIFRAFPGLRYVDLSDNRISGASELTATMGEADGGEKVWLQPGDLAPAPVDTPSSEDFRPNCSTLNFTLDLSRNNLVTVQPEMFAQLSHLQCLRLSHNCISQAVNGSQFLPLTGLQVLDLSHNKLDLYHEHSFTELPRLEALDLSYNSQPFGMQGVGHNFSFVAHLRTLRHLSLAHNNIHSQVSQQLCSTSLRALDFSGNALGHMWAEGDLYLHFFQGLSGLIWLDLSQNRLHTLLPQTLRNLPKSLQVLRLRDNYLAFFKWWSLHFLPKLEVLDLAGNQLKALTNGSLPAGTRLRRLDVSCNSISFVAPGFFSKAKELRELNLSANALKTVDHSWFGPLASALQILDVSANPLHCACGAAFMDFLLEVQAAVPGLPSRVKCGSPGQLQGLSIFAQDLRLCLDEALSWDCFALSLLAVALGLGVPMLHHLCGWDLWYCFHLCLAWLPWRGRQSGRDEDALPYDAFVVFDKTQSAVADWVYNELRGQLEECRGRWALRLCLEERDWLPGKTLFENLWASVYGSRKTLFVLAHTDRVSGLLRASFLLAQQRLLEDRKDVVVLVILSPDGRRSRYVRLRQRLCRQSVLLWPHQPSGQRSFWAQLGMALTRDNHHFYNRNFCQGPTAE
In short: as §1

human TLR7, sequence (Q9NYK1 27-1049): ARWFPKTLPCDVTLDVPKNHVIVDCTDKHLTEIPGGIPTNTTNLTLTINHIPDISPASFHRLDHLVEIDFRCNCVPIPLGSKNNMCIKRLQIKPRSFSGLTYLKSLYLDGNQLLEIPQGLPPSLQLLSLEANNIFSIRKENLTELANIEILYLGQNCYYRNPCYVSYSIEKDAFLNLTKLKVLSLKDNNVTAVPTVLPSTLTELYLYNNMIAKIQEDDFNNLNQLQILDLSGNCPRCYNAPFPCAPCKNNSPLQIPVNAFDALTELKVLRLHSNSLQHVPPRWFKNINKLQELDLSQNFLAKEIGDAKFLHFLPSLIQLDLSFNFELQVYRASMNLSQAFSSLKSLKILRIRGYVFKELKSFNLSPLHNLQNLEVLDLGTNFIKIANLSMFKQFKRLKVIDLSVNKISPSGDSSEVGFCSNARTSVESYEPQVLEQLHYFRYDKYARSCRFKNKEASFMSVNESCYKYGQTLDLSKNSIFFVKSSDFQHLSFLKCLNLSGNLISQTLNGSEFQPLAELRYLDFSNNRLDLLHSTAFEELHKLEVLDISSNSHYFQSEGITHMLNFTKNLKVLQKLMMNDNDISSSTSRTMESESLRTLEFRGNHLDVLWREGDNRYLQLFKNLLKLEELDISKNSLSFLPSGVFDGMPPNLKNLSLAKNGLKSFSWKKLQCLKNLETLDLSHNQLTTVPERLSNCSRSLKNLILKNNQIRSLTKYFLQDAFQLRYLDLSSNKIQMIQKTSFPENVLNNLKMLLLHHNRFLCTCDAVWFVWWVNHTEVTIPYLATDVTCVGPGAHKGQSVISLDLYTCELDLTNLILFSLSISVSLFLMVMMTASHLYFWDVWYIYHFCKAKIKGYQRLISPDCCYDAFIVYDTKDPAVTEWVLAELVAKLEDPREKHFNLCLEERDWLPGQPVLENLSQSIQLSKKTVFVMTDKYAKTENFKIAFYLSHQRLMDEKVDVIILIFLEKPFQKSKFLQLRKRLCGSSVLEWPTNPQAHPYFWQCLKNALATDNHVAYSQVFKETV

Row | Structure (SMILES) | IC50 [1] | IC50 [2] | IC50 [3]
1 | CCc1c(-c2ccc(OC)c(OC)c2)[nH]c2ccc(-c3noc([C@H]4C[C@H]5CC[C@@H](C4)N5)n3)cc12 [Example 452, 5-((1R,3r,5S)-8-azabicyclo[3.2.1]octan-3-yl)-3-(2-(3,4-dimethoxyphenyl)-3-ethyl-1H-indol-5-yl)-1,2,4-oxadiazole] | 282 nM | 52 nM | 1930 nM
2 | CCc1c(-c2ccnc(C)c2)[nH]c2ccc(-c3noc(CN(C)C)n3)cc12 [Example 453, 1-(3-(3-ethyl-2-(2-methylpyridin-4-yl)-1H-indol-5-yl)-1,2,4-oxadiazol-5-yl)-N,N-dimethylmethanamine] | 703 nM | 32 nM | 23200 nM
3 | CCc1c(-c2ccc(OC)c(OC)c2)[nH]c2ccc(-c3noc(CCN(C)C)n3)cc12 [Example 454, 2-(3-(2-(3,4-dimethoxyphenyl)-3-ethyl-1H-indol-5-yl)-1,2,4-oxadiazol-5-yl)-N,N-dimethylethan-1-amine] | 306 nM | 19 nM | 11300 nM
4 | CCc1c(-c2ccnc(C)c2)[nH]c2ccc(-c3noc([C@H]4CCNC4)n3)cc12 [Example 455, (S)-3-(3-ethyl-2-(2-methylpyridin-4-yl)-1H-indol-5-yl)-5-(pyrrolidin-3-yl)-1,2,4-oxadiazole] | 2220 nM | 27 nM | 15900 nM
5 | CCc1c(-c2ccnc(C)c2)[nH]c2ccc(-c3noc(C4CCNC4)n3)cc12 (stereo not drawn) [Example 456, 3-(3-ethyl-2-(2-methylpyridin-4-yl)-1H-indol-5-yl)-5-(pyrrolidin-3-yl)-1,2,4-oxadiazole] | 78 nM | 18 nM | 593 nM
6 | CCc1c(-c2ccnc(C)c2)[nH]c2ccc(-c3noc(C4CCCNC4)n3)cc12 (stereo not drawn) [Example 457, 3-(3-ethyl-2-(2-methylpyridin-4-yl)-1H-indol-5-yl)-5-(piperidin-3-yl)-1,2,4-oxadiazole] | 228 nM | 11 nM | 686 nM
7 | CCc1c(-c2ccnc(C)c2)[nH]c2ccc(-c3noc(C4CNC4)n3)cc12 [Example 458, 5-(azetidin-3-yl)-3-(3-ethyl-2-(2-methylpyridin-4-yl)-1H-indol-5-yl)-1,2,4-oxadiazole] | 163 nM | 37 nM | 1050 nM
8 | CCc1c(-c2ccc(OC)c(OC)c2)[nH]c2ccc(-c3noc(C4CCNCC4)n3)cc12 [Example 459, 3-(2-(3,4-dimethoxyphenyl)-3-ethyl-1H-indol-5-yl)-5-(piperidin-4-yl)-1,2,4-oxadiazole] | 306 nM | 19 nM | 2180 nM
9 | CCc1c(-c2ccc(OC)c(OC)c2)[nH]c2ccc(-c3noc(CCNC)n3)cc12 [Example 460, 2-(3-(2-(3,4-dimethoxyphenyl)-3-ethyl-1H-indol-5-yl)-1,2,4-oxadiazol-5-yl)-N-methylethan-1-amine] | 539 nM | 7.3 nM | 2680 nM
10 | CCc1c(-c2ccnc(C)c2)[nH]c2ccc(-c3noc(C4CC5(CCNCC5)C4)n3)cc12 [Example 461, 3-(3-ethyl-2-(2-methylpyridin-4-yl)-1H-indol-5-yl)-5-(7-azaspiro[3.5]nonan-2-yl)-1,2,4-oxadiazole] | 321 nM | 72 nM | 1540 nM
11 | CC(C)c1c(-c2ccnc3[nH]ncc23)[nH]c2ccc(-c3noc([C@@H]4CCCNC4)n3)cc12 [Example 462, (R)-3-(3-isopropyl-2-(1H-pyrazolo[3,4-b]pyridin-4-yl)-1H-indol-5-yl)-5-(piperidin-3-yl)-1,2,4-oxadiazole] | 156 nM | 4.1 nM | 1900 nM
12 | CCc1c(-c2ccc(OC)c(OC)c2)[nH]c2ccc(-c3noc([C@@H](N)CCCN)n3)cc12 [Example 463, (S)-1-(3-(2-(3,4-dimethoxyphenyl)-3-ethyl-1H-indol-5-yl)-1,2,4-oxadiazol-5-yl)butane-1,4-diamine] | 772 nM | 126 nM | 7150 nM
